From patent US12637499B2, “Adrenomedullin analog, method for producing the same, and pharmaceutical use thereof” (priority 2020, dated 2026)

Legend:
in vitro [1] = details: serum, pH 7.1
Method: (§1) After the lapse of a predetermined time, a 30-μl portion was taken out of the reaction solution, transferred into 170 μl of 0.1% aqueous solution of trifluoroacetic acid (TFA), and stored at −80° C. until analysis.
(§2) Quantitative analysis was performed for AM contained in the thus-obtained samples of a reaction mixture with serum or plasma by using specific fluoroimmunoassay (Tosoh Corporation) with two antibodies differing in their recognition sites. […] In the figure, the abscissa represents reaction time (min), and the ordinate represents concentration of AM (UM).
In the figure, the abscissa represents reaction time (min), and the ordinate represents concentration of AM or an AM analog (μM).
In the figure, the abscissa represents the type of AM or an AM analog, and the ordinate represents residual rates of AM or an AM analog (%).

in vitro [2] = details: plasma, pH 7.1
Method: as §1, §2

in vitro [3] = details: Experiment VIII; 10^−7 M, 37° C.; 1 hour after the beginning of reaction
in vivo = details: male, Wistar, rat, plasma, sc, 50 nmol/kg
Method: Eight-week-old male Wistar rats were purchased from Charles River Laboratories Japan, Inc. The rats were grown with normal feeds in the absence of specific pathogens under cycles of a 12-hour light period and a 12-hour dark period. […] To determine plasma AM concentrations, 50 nmol/kg of AM or an AM analog was subcutaneously administered. A peripheral blood sample was collected from the tail vein into a test tube (containing 21 μg of aprotinin and 0.3 mg of EDTA-2Na) at predetermined times (0, 15, 30, 60, and 120 minutes after administration). The test tube was centrifuged at 1,700×g to afford plasma.

CC[C@H](C)[C@H](NC(=O)[C@H](CCC(N)=O)NC(=O)[C@H](Cc1c[nH]cn1)NC(=O)[C@H](C)NC(=O)[C@H](CC(C)C)NC(=O)[C@H](CCCCN)NC(=O)[C@H](CCC(N)=O)NC(=O)[C@@H](NC(=O)[C@@H](NC(=O)[C@@H]1CSSC[C@H](NC(=O)CNC(=O)[C@H](Cc2ccccc2)NC(=O)[C@H](CO)NC(=O)[C@H](CCCNC(=N)N)NC(=O)[C@H](CC(C)C)NC(=O)CNC(=O)[C@H](CCC(N)=O)NC(=O)[C@H](Cc2ccccc2)NC(=O)[C@H](CC(N)=O)NC(=O)[C@H](CC(N)=O)NC(=O)[C@H](CCSC)NC(=O)[C@H](CO)NC(=O)[C@H](CCC(N)=O)NC(=O)[C@H](CCCNC(=N)N)NC(=O)[C@@H](N)Cc2ccc(O)cc2)C(=O)N[C@@H](CCCNC(=N)N)C(=O)N[C@@H](Cc2ccccc2)C(=O)NCC(=O)N[C@@H]([C@@H](C)O)C(=O)N1)[C@@H](C)O)C(C)C)C(=O)N[C@@H](Cc1ccc(O)cc1)C(=O)N[C@@H](CCC(N)=O)C(=O)N[C@@H](Cc1ccccc1)C(=O)N[C@H](C(=O)N[C@@H](CC(=O)O)C(=O)N[C@@H](CCCCN)C(=O)N[C@@H](CC(=O)O)C(=O)N[C@@H](CCCCN)C(=O)N[C@@H](CC(=O)O)C(=O)N[C@@H](CC(N)=O)C(=O)N[C@H](C(=O)N[C@@H](C)C(=O)N1CCC[C@H]1C(=O)N[C@@H](CCCNC(=N)N)C(=O)N[C@@H](CO)C(=O)N[C@@H](CCCCN)C(=O)N[C@H](C(=O)N[C@@H](CO)C(=O)N1CCC[C@H]1C(=O)N[C@@H](CCC(N)=O)C(=O)NCC(=O)N[C@@H](Cc1ccc(O)cc1)C(N)=O)[C@@H](C)CC)C(C)C)[C@@H](C)O [hAM(1-52), YRQSMNNFQGLRSFGCRFGTCTVQKLAHQIYQFTDKDKDNVAPRSKISPQGY-CONH2, reference compound]
remaining at 4 h (in vitro [1]): 0.2% | remaining at 4 h (in vitro [2]): 85% | presence in reaction mixture with human serum (in vitro [3]): substantially disappeared | half-life (in vivo): 1.23 h
